Data from patent US20090030072A1, “PHARMACEUTICAL COMBINATION OF OPIOID AND PRO[…]” (SUCAMPO AG, priority 2007, published 2009).

Tested on: oxycodone-induced constipation in mice
Experiment: Graphite marker propulsion in the intestine, oxycodone-induced constipation in mice
Format: in vivo, Male Crlj: CD1 (ICR) mice
Conditions: 150 minutes after graphite marker
Method: Male Crlj: CD1 (ICR) mice were given oral administration of 0.1 mL of graphite maker (INK-30 containing 1% tragacanth gum). Immediately after administration of the graphite marker, the animals were treated orally with oxycodone at 5 mg/kg. The dosing volume of oxycodone was set at 5 mL/kg; the animals of the normal group were given the same volume of 0.5% CMC—Na. Immediately after administration of oxycodone or 0.5% CMC—Na, the animal was treated with Compound 1. The dosing volume of the Compound 1 was set at 5 mL/kg; the animals of the normal and control groups were given the same volume of water for injection. The animals were euthanized by cervical dislocation 150 minutes after administration of graphite marker, and the abdomen was cut open. The distance from the stomach to the cecum, and moving distance of the graphite marker in the intestine were measured. Propulsion rate was calculated by the following formula.
Propulsion rate (%)=(Moving distance of graphite marker/Distance from the stomach to the cecum)×100

| SMILES | The graphite marker propulsion rate Mean ± S.E. (control group: oxycodone 5 mg/kg oral alone, n=15, p < 0.01 compared to normal group (99.8 ± 0.2)) [%] | The graphite marker propulsion rate Mean ± S.E. (control group: oxycodone 5 mg/kg oral alone, n=15, p < 0.01 compared to normal group (99.8 ± 0.2), listed as Oxycodone) [%] | The graphite marker propulsion rate Mean ± S.E. (Compound 1 100 μg/kg combined with oxycodone 5 mg/kg oral, n=15, p < 0.05 compared to control group) [%] |
| --- | --- | --- | --- |
| COc1ccc2c3c1O[C@H]1C(=O)CC[C@@]4(O)[C@@H](C2)N(C)CC[C@]314 [oxycodone] | 62.3±5.6 | 62.3 ± 5.6 | – |
| CCCCC(F)(F)C(=O)CCC1C(O)CC(=O)C1CCCCCCC(=O)O (stereo not drawn) [Compound 1, 13,14-dihydro-15-keto-16,16-difluoro-PGE1] | – | – | 80.5±5.5 |
